Measured values from patent US9315494B2, “Alkyl-amide-substituted pyridyl compounds useful as modulators of IL-12, IL-23 and/or IFNα responses” (Bristol-Myers Squibb Company, priority 2012, dated 2016).

Key:
[1] = target: T1, recombinantly expressed His-tagged protein corresponding to amino acids 575-869 of human Tyk2 (Homo sapiens, UniProt P29597); assay: Probe displacement assay (scintillation proximity, [3H] probe); format: binding; conditions: 2.5 nM Tyk2 (575-869), 40 nM radiolabeled probe, 30 minutes at room temperature
T1 construct: corresponding to amino acids 575-869 of human Tyk2; made in house
Procedure: The probe displacement assay is conducted as follows: In a […], test compounds along with recombinantly expressed His-tagged protein corresponding to amino acids 575-869 of human Tyk2 (sequence shown below) at 2.5 nM, 40 nM ((R)-N-(1-(3-(8-methyl-5-(methylamino)-8H-imidazo[4,5-d]thiazolo[5,4-b]pyridin-2-yl)phenyl)ethyl)-2-([^3H]methylsulfonyl)benzamide) (preparation described below) and 80 μg/mL Copper His-Tag scintillation proximity assay beads (Perkin Elmer, Catalog #RPNQ0095) in 50 mM HEPES, pH 7.5, containing 100 μg/mL bovine serum albumin and 5% DMSO were incubated for 30 minutes at room temperature. The amount of radiolabeled probe (preparation described below) bound to Tyk2 was then quantified by scintillation counting, and the inhibition by the test compound calculated by comparison to wells either with no inhibitor (0% inhibition) or without Tyk2 (100% inhibition).
Protein Sequence of recombinant Hig-tagged Tyk2 (575-869):
The preparation of radiolabeled probe, (R)-N-(1-(3-(8-methyl-5-(methylamino)-8H-imidazo[4,5-d]thiazolo[5,4-b]pyridin-2-yl)phenyl)ethyl)-2-([^3H]methylsulfonyl)benzamide, was performed as described below: […]

[2] = test system: IL-23-stimulated STAT-dependent luciferase reporter in Kit225 T cells; assay: Kit225 T cell assay, IL-23 stimulated STAT-dependent luciferase reporter; format: cell-based, human; conditions: Kit225 T cells, 20 ng/mL human recombinant IL-23, 5-6 hours, luciferase; read-out: IL23 (Kit225 T Cell Inhibition Data)
How it was run: (§1)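 Kit225 T cells carrying a stably integrated STAT-luciferase reporter, in RPMI with 10% heat-inactivated FBS, were stimulated with 20 ng/mL IL-23 or 200 U/mL IFNα for 5-6 h. Readout was luminescence from the luciferase reporter.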

[3] = test system: IFNα-stimulated STAT-dependent luciferase reporter in Kit225 T cells; assay: Kit225 T cell assay, IFNα stimulated STAT-dependent luciferase reporter; format: cell-based, human; conditions: Kit225 T cells, 200 U/mL human recombinant IFNα, 5-6 hours, luciferase; read-out: IFNα (Kit225 T Cell Inhibition Data)
How it was run: as §1

T1 sequence (P29597 575-869): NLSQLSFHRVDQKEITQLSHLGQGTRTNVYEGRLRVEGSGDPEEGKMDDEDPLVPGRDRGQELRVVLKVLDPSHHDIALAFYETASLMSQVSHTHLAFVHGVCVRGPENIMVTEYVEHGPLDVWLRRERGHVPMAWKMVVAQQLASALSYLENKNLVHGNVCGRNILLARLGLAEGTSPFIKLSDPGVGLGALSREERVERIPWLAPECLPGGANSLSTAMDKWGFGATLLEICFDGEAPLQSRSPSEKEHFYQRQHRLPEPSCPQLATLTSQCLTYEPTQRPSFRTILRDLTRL

Row | Structure (SMILES) | EC50 [1] | IC50 [2] | IC50 [3]
1 | CNC(=O)c1cnc(Nc2ccc(F)cn2)cc1Nc1ccccc1[S+](C)[O-] (stereo not drawn) [Example 62] | 84.5 nM | 898 nM | 1290 nM
2 | CNC(=O)c1cnc(Nc2ccc(C)cn2)cc1Nc1cc(F)cc(F)c1OC [Example 128] | 21.3 nM | 335 nM | 140 nM
3 | CNC(=O)c1cnc(Nc2ccc(O)cn2)cc1Nc1ccccc1C(N)=O [Example 81] | 22.7 nM | 5580 nM | 4490 nM
4 | CNC(=O)c1cnc(Nc2ccc(N3CCOCC3)cn2)cc1Nc1ccccc1C [Example 217] | 291 nM | 3310 nM | 1480 nM
5 | CCC(CC)CNC(=O)c1cccc(Nc2cc(Nc3cc(C)c(F)cn3)ncc2C(=O)NC)c1OC [Example 334] | 14 nM | 310 nM | 230 nM
6 | CNC(=O)c1cnc(Nc2ccc(N3CCOCC3)cn2)cc1Nc1ccccc1CCO [Example 224] | 597 nM | 5610 nM | 4600 nM
7 | CNC(=O)c1cnc(Nc2ccc(F)cn2)cc1Nc1cccc2ccccc12 [Example 188] | 557 nM | 4300 nM | 6470 nM
8 | CNC(=O)c1cnc(Nc2ccc(F)cn2)cc1Nc1cc(Cl)ccc1OC [Example 203] | 53.5 nM | 1460 nM | 1170 nM
9 | CNC(=O)c1cnc(Nc2ccc(N3CCOCC3)cn2)cc1Nc1ccccc1SC [Example 226] | 20.1 nM | 151 nM | 140 nM
10 | CNC(=O)c1cnc(Nc2cccc(OC)n2)cc1Nc1ccccc1C(N)=O [Example 73] | 12 nM | 506 nM | 290 nM
11 | CNC(=O)c1cnc(Nc2ccc3ccccc3n2)cc1Nc1ccccc1S(C)(=O)=O [Example 2] | 13.2 nM | 57.4 nM | 30 nM
12 | CNC(=O)c1cnc(Nc2ccc(N3CCOCC3)cn2)cc1Nc1ccc(Cl)cc1OC [Example 104] | 17.7 nM | 246 nM | 50 nM
13 | CNC(=O)c1cnc(Nc2cc(C#N)ccn2)cc1Nc1ccc(S(C)(=O)=O)cc1OC [Example 43] | 68.7 nM | 173 nM | 870 nM
14 | CNC(=O)c1cnc(Nc2ccc(F)cn2)cc1Nc1ccccc1S(=O)(=O)N(C)C [Example 302] | 182 nM | 4060 nM | 2090 nM
15 | CNC(=O)c1cnc(Nc2cc(Cl)ccn2)cc1Nc1cc(F)cc(F)c1OC [Example 144] | 46.1 nM | 517 nM | 230 nM
16 | CNC(=O)c1cnc(Nc2ccc(F)cn2)cc1Nc1ccc(-c2ccccc2)cc1 [Example 194] | 349 nM | 3220 nM | 8660 nM
17 | CNC(=O)c1cnc(Nc2ccc3ccccc3n2)cc1NC1CCCC1C(N)=O (stereo not drawn) [Example 289] | 495 nM | 12500 nM | 7300 nM
18 | CNC(=O)c1cnc(Nc2cc(C)c(F)cn2)cc1Nc1cccc(C(=O)NCC2CCCCC2)c1OC [Example 325] | 76.4 nM | 460 nM | 210 nM

Stronger by EC50 [1], values ahead:

Row | EC50 [1] | IC50 [2] | IC50 [3] | Structure (SMILES)
19 | 6.3 nM | 4250 nM | 2360 nM | CNC(=O)c1cnc(Nc2ccc(F)cn2)cc1Nc1ccc(C(=O)NCCO)cc1OC [Example 238]
20 | 5.3 nM | 9.98 nM | 10 nM | CNC(=O)c1cnc(Nc2cc(C)c(F)cn2)cc1Nc1cccc(-c2nnco2)c1OC [Example 358]
21 | 3.5 nM | 5.83 nM | 2.86 nM | CNC(=O)c1cnc(Nc2cc(C)nc(C)n2)cc1Nc1cccc(-c2ccn(C)n2)c1OC [Example 393]
22 | 9.9 nM | 314 nM | 130 nM | CNC(=O)c1cnc(Nc2cc(C#N)ccn2)cc1Nc1cc(F)cc(F)c1OC [Example 134]
23 | 8 nM | 11 nM | 17 nM | [2H]C([2H])([2H])NC(=O)c1cnc(Nc2ccc(C)nn2)cc1Nc1cccc(-c2csc(C)n2)c1OC [Example 448]
24 | 5.5 nM | 4100 nM | 1850 nM | CNC(=O)c1cnc(Nc2ccc(CO)cn2)cc1Nc1ccccc1C(N)=O [Example 79]
25 | 10.5 nM | 30 nM | 30 nM | CNC(=O)c1cnc(Nc2cc(C)c(F)cn2)cc1Nc1cccc(C(=O)NCc2nccs2)c1OC [Example 345]
26 | 4.4 nM | 320 nM | 460 nM | CNC(=O)c1cnc(Nc2ccc(Cl)cn2)cc1Nc1ccccc1C(N)=O [Example 80]
27 | 4.2 nM | 10 nM | 10 nM | CNC(=O)c1cnc(Nc2ccc(F)cn2)cc1Nc1ccccc1N(C)S(C)(=O)=O [Example 426]
28 | 5 nM | 90 nM | 80 nM | CNC(=O)c1cnc(Nc2ccc(F)cn2)cc1Nc1cccc(C(N)=O)c1OC [Example 315, 4-((3-carbamoyl-2-methoxyphenyl)amino)-6-((5-fluoropyridin-2-yl)amino)-N-methylnicotinamide]
29 | 3.8 nM | 257 nM | 160 nM | CNC(=O)c1cnc(Nc2ccc3ccccc3n2)cc1Nc1ccccc1C(N)=O [Example 87]
30 | 4.7 nM | 70 nM | 40 nM | CNC(=O)c1cnc(Nc2cc(C)n(C)n2)cc1Nc1cccc(-c2nnc[nH]2)c1OC [Example 363]
31 | 4.6 nM | 10 nM | 5.07 nM | CCn1cnc(-c2cccc(Nc3cc(Nc4cc(C)nc(C)n4)ncc3C(=O)NC)c2OC)n1 [Example 382]
32 | 4.8 nM | 10 nM | 10 nM | CNC(=O)c1cnc(Nc2cc(C)nc(C)n2)cc1Nc1cccc(-c2nnc(C)[nH]2)c1OC [Example 365]
33 | 8.2 nM | 260 nM | 140 nM | CNC(=O)c1cnc(Nc2cncc(C)n2)cc1Nc1ccccc1S(C)(=O)=O [Example 42]
34 | 6 nM | 9.66 nM | 10 nM | CNC(=O)c1cnc(Nc2cc(C)c(F)cn2)cc1Nc1cccc(-c2ccn(C)n2)c1OC [Example 391]
35 | 7.3 nM | 20 nM | 10 nM | [2H]C([2H])([2H])NC(=O)c1cnc(Nc2cc(C(C)(C)O)ccn2)cc1Nc1cccc(-c2ncc(F)cn2)c1OC [Example 450]
36 | 6.5 nM | 110 nM | 60 nM | CNC(=O)c1cnc(Nc2cc(C)c(F)cn2)cc1Nc1cccc(-c2cnn(C)c2)c1OC [Example 396]
37 | 5.7 nM | 310 nM | 180 nM | CNC(=O)c1cnc(Nc2cc(OC(C)C)ncn2)cc1Nc1ccccc1S(C)(=O)=O [Example 422]
38 | 6.5 nM | 110 nM | 60 nM | [2H]C([2H])([2H])NC(=O)c1cnc(Nc2ccc(F)cn2)cc1Nc1ccccc1S(C)(=O)=O [Example 298]
